The source of these data is patent EP4624482A1, “PYRIMIDOPYRIMIDINONE COMPOUND AND PHARMACEUTICAL COMPOSITION COMPRISING SAME” (Axceso Biopharma Co., Ltd., priority 2022, dated 2024).

Molecules are shown by their SMILES.

Assay [1] relates to MYSEC (murine yolk sac endothelial cell) cell lines. In words: In vitro permeability of LPS-treated MYSEC cells (transwell, streptavidin-HRP). Type of assay: cell-based. As to the method: Permeability was measured by an in vitro method using cell culture and in vivo method using Evans blue dye. To increase permeability, LPS was used in the in vitro method and CLP treatment was used in the in vivo method.
To measure permeability by an in vitro method, MYSEC (murine yolk sac endothelial cell) cell lines were used. MYSEC cell lines were placed in the top chamber of a trans well at 2.5×10^5 cells/well and treated with 300 ng of lipopolysaccharide (LPS) derived from Gram-negative bacteria in the presence of the compound of formula (1a-1) for 24 hours. The medium in the top chamber was replaced with 300 µl of serum-free medium containing 5 µl of streptoavidin-HRP. After 5 minutes, 20 µl of the medium in the lower chamber was taken and the activity of HRP was measured as absorbance at 450 nm.
To determine the mechanism by which the compound of formula (1a-1) improves permeability, the same experiment was performed by knocking down the SIRT1 protein in the MYSEC cell line.

Assay [2] concerns dopamine transporter (DAT). In words: Differentiation of pluripotent stem cells into dopaminergic neurons: DAT. Type of assay: cell-based. The settings on record: western blot of 5-week differentiation sample. The procedure:
Pluripotent stem cells were seeded in AggreWell plates (stemcell) at 5,000 cells/microwell and cultured for 5 days in E6 medium (GIBCO) to induce embryonic body (EB) formation. For neural rosette formation, EBs were seeded into 35 mm dishes in groups of 30 and cultured for 10 days in N2bF medium. The 35 mm dishes were used after being coated with 15 µg/ml of poly-L-ornithine (sigma) and 1 µg/ml of fibronectin (sigma). The N2Bf medium composition was DMEM/F12 (GIBCO), N2 supplement (stemcell) 1×, 10% NEAA (GIBCO), 55 µM betaMercaptoethanol (GIBCO), bFGF (peprotech) 20 ng/ml. For the formation of spherical neural masses (SNMs), rosette masses were sliced and cultured in petri dishes with N2bF medium. SNMs were no larger than 500 µM in size and were sliced and cultured for 3 to 4 passages. After subculture of SNM, the clumps were broken into small pieces using a tungsten mesh (Nilaco) for the neural progenitor cell (NPC) culture step, and then attached to a PLO/FN-coated dish and cultured in N2bF medium. To differentiate NPCs into dopaminergic neurons, the medium was replaced with an ITS-B27 medium after 2 days of NPC culture. […]
The effect of the compound of formula (1a-1) on differentiation into neurons was evaluated by comparing the expression of tyrosine hydroxylase (TH) and dopamine transporter (DAT) depending on the presence or absence of treatment with the compound of formula (1a-1).
For orientation: Immunoblotting shows a protein as a band on a membrane.

For another assay, the system named is TNF-α. Put plainly: Serum TNF-α after CLP treatment, ELISA. Type of assay: in vivo, mouse. The settings on record: treated at 6 and 16 hours after CLP, serum at 18 hours. As to the method:
After CLP treatment, the inflammatory cytokines TNF-α and IL-6 were analyzed by ELISA.
Specifically, after treating the compound of formula (1a-1) at 6 and 16 hours after CLP treatment, mouse blood was collected at 18 hours and allowed to stand at room temperature for 1 hour, then centrifuged at 3000 rpm for 10 minutes to obtain serum to analyze the amount of TNF-α and IL-6.

For assay [3], the system named is tyrosine hydroxylase (TH). Put plainly: TH expression in rotenone-treated differentiated SH-SY5Y dopaminergic neurons, western blot. Type of assay: cell-based, human. The procedure:
To analyze the effect on the expression of tyrosine hydroxylase (TH) and α-synuclein as neuron-specific proteins, western blot was performed.
SH-SY5Y cell line was treated with retinoic acid and 12-O-tetradecanoylphorbol-13-acetate (TPA) to induce differentiation into TH-secreting neurons for 6 days.
Differentiated dopaminergic neurons were lysed in PRO-PREP (Intronbio), a cell lysis solution containing protease inhibitor cocktail (Gendepot), and electrophoresed in 10% SDS polyacrylamide gels at 20 µg/well. Transfer was performed using PVDF (Merck millipore) as a membrane, and tyrosine hydroxylase antibody, α-synuclein antibody (Cell signaling), and β-actin antibody (Santa Cruz) were used for reaction for more than 2 hours. Protein expression was detected by staining with ECL substrate (Biorad) for development and graphed using the image J program.

The subject of the next assay is C57BL/6 mice. Put plainly: Survival in sepsis induced by cecal ligation and puncture (CLP). Type of assay: in vivo. The settings on record: 100 ng/mouse (5 µg/kg) intravenously at 6 and 16 hours after CLP. The procedure: C57BL/6 mice aged 7-8 weeks were purchased from Jabio (Suwon, Gyeonggi-do) and sepsis was induced by cecal ligation and puncture (CLP).
Specifically, after anesthesia using 150 mg/kg of ketamine and 17.5 mg/kg of rompun, an abdominal incision of 1-2 cm was made to expose the cecum to induce sepsis. The cecum was ligated with 6-0 silk sutures at the distal end of the ileocecal valve, and a puncture was made with an 18-gauge needle. The perforated cecum was gently squeezed to push out 1-2 cm of feces, and the cecum was then retracted back into the abdominal cavity. The abdomen was then closed and pre-warmed normal saline (2.5 mL/100 g body weight) was injected into the mouse abdominal cavity immediately after the procedure. 6 and 16 hours after CLP treatment, the compound of formula (1a-1) was dissolved in phosphate buffered saline (PBS) and injected intravenously at 100 ng/mouse (5 µg/kg), and survival was examined for 10 days. […] In addition, as a drug-negative control, survival was examined in mice that received only PBS after CLP treatment.
For comparison, we also examined the survival of a control group treated with fingolimod (FTY720), a known S1P modulator, instead of the compound of formula (1a-1) under the same conditions.

Assay [4] relates to APP/PS/Tau transgenic mice. In words: Intestinal length in AD-induced animal model. The following applies: 1 mg/kg intraperitoneally once every 3 days for 2 weeks. Type of assay: in vivo. As to the method: In neurodegenerative diseases (AD and PD), the length of the intestine tends to decrease as the disease progresses, so we looked for changes in intestinal length in an AD-induced animal model.
APP/PS/Tau transgenic mice were used as an AD-induced animal model. The compound of formula (1a-1) was administered intraperitoneally once every 3 days at a concentration of 1 mg/kg to 12-week-old transgenic mice for 2 weeks, and the changes in intestinal length of the mice were measured after 1 and 4 weeks.

Consider `CCCCCCCCCCCCCC[C@H]1OP(=O)(O)O[C@H]1[C@@H](N)CO.Cl` [formula (1a-1), (4S,5R)-4-((S)-1-amino-2-hydroxyethyl)-2-hydroxy-5-tetradecyl-1,3,2-dioxaphosphoran-2-oxide hydrochloride], for which the “effect on LPS-induced permeability after knockdown of the SIRT1 protein” value in assay [1] (MYSEC cell line with SIRT1 knockdown, LPS) is recorded as “does not show the effect”. Further, the LPS-induced increased permeability result in assay [1] (MYSEC cell line, 300 ng LPS, 24 hours) is “restores the LPS-induced increased permeability to normal”. The DAT glycosylation entry in assay [2] is “increased”. In addition, the “amount of inflammatory cytokine TNF-α” value in the assay with TNF-α is listed as “significantly decreased”. For the same compound, the “effectiveness on TH and α-synuclein expression compared with control drug” value in assay [3] is “more effective than resveratrol”. For the same compound, the “expression of TH decreased by rotenone” value in assay [3] (differentiated dopaminergic neurons treated with rotenone) was “restored”. The “deaths after 10 days” value with C57BL/6 mice is listed as “no deaths”. Besides, in the assay with C57BL/6 mice (for 10 days), the survival result was “more than 80%”. For the same compound, the “length of the intestine at 4 weeks (6W) compared to 1 week (3W) after administration” value in assay [4] is given as “longer”. Moreover, the intestinal length entry in assay [4] (compared to untreated AD-induced control mice) is given as “increased”.
